In US6833374B2, “Dihydropyrazolo[3,4-d]thieno[2,3-B]pyridinone inhibitors of B7-1” (Wyeth, priority 2002, dated 2004):

Target: T1, B7-1/CD28 (Homo sapiens, UniProt P33681)
T1 sequence (P33681 35-242 limits assumed): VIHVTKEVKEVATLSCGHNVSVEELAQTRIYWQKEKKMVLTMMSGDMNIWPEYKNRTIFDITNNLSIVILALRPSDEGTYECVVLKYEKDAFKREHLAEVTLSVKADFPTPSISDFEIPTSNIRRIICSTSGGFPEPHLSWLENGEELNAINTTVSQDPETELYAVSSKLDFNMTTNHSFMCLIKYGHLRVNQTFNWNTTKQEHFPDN
Test: CD28/B7-1 ELISA (B7-1/CD28 binding inhibition)
Details: CD28-Fc coated wells, B7-1-Fc-biotin detection complex
Protocol: Evaluation of B7-1/CD28 Binding Inhibition for Test Compounds
Wells are coated with 300 ng CD28-Fc in carbonate buffer (pH 9.4) overnight at 4° C., blocked with 1% bovine serum albumin in tris-buffered saline (TBS) for 1 h at 22° C. and washed 3 times in TBS prior to assay. The detection complex is formed as follows: B7-1-Fc-biotin, prepared using NHS-LC-biotin (Pierce #21335) according to the manufacturers instructions (4.1 moles biotin/mole Fc), is added at 0.8 ug/ml to streptavidin-alkaline phosphatase (Caltag Sa1008 at 1:1000 in TBS. Gradient dilutions of test compound in dimethylsulfoxide (1% final) are added to this complex and incubated 30 min. at 22° C. Detection complex (+/− inhibitors) is then added to the CD28 coated wells for 25 min. at 22° C., washed 5 times with TBS, developed with the calorimetric substrate pNPP (Pierce #34045) in diethanolamine/MgCl2 buffer (pH 9.5) and read at 405 nm. The inhibition constant (IC50) is calculated by subtracting the background binding and comparing to uninhibited (DMSO alone) controls. The inhibition constant represents the concentration of test compound required to achieve 50% inhibition.

| IC50 | Compound |
| --- | --- |
| 600 nM | O=c1c2c(-c3cccc(C(F)(F)F)c3)nc3sccc3c2[nH]n1-c1ccc(F)cc1 [Example 3, 2-(4-Fluorophenyl)-4-[3-(trifluoromethyl)phenyl]1,2-dihydro-3H-pyrazolo[3,4-d]thieno[2,3-b]pyridin-3-one] |
| 500 nM | O=c1c2c(-c3cccc(C(F)(F)F)c3)nc3sccc3c2[nH]n1-c1ccc(Cl)cc1 [Example 4, 2-(4-chlorophenyl)-4-[3-(trifluoromethyl)phenyl]-1,2-dihydro-3H-pyrazolo-[3,4-d]thieno[2,3-b]pyridin-3-one] |
